The values below come from patent publication US9034918B2, “Composition including at least one trans-cinnamaldehyde and the use thereof in the treatment of bacterial infections, specifically in the treatment of nosocomial infections” (SEPTEOS, priority 2009, dated 2015).

What all share (assay): Antibiogram by diffusion technique (CA-SFM 2008)
Common to all, as to format: cell-based

The test system of one experiment is E. coli strain 9003. From the text:
(§1) Three clinical categories were selected for interpretation of the in vitro sensitivity tests: sensitive (S), resistant (R) and intermediate (I). • The strains categorized S are those for which the probability of therapeutic success is high in the case of treatment by systemic route with the dosing schedule recommended in the summary of product characteristics (SPC) prepared by the French Health Products Safety Agency (AFSSAPS). • The strains categorized R are those for which there is a high probability of therapeutic failure regardless of treatment type and antibiotic dose. • The strains categorized I are those for which therapeutic success cannot be predicted. These strains form a heterogeneous group for which the results obtained in vitro are not predictive of therapeutic success. […] The intermediate category is also a buffer zone which takes into account technical and biological uncertainties.
(§2) The sensitivity of strains to antibiotics was determined by a diffusion technique according to the 2008 recommendations by the Antibiogram Committee of the French Microbiology Society (CA-SFM).
(§3) In terms of critical concentrations and diameters, strains are categorized as follows: • sensitive (S): strains for which the MIC of the antibiotic tested is less than or equal to the lower critical concentration c, which is equivalent to a diameter greater than or equal to the critical diameter D; • resistant (R): strains for which the MIC of the antibiotic tested are greater than the upper critical concentration C, corresponding to a diameter less than the critical diameter d; • intermediate sensitivity (I): strains for which the MIC of the antibiotic tested and the corresponding diameter are between the two critical concentrations and the two critical diameters.
(§4) The tests were carried out on Mueller-Hinton agar. An inoculum adjusted to 0.5 on the McFarland scale is then diluted to 1/100. Petri dishes are inoculated by swabbing. The dishes are read after 24 hours of incubation at 37° C.
(§5) The raw results are then interpreted according to the interpretative reading rules of the CA-SFM.

Experiment [1] deals with Enterobacter aerogenes (9004). Conditions: strain 9004.
From the text: as §1, §2, §3, §4, §5

Experiment [2] concerns strain 9010, Acinetobacter baumannii, with VEB-1 ESBL.
From the text: as §1, §2, §3, §4, §5

Experiment [3] concerns strain 9007, Pseudomonas aeruginosa, with VIM-2 carbapenemase.
From the text: as §1, §2, §3, §4, §5

Another experiment concerns E. coli ATCC 25922. Details: Diameter (D): unit not given here. From the text:
Three clinical categories were selected for interpretation of the in vitro sensitivity tests: sensitive (S), resistant (R) and intermediate (I). • The strains categorized S are those for which the probability of therapeutic success is high in the case of treatment by systemic route with the dosing schedule recommended in the summary of product characteristics (SPC) prepared by the French Health Products Safety Agency ([…]). • The strains categorized R are those for which there is a high probability of therapeutic failure regardless of treatment type and antibiotic dose. • The strains categorized I are those for which therapeutic success cannot be predicted. These strains form a heterogeneous group for which the results obtained in vitro are not predictive of therapeutic success. […] The intermediate category is also a buffer zone which takes into account technical and biological uncertainties. The sensitivity of strains to antibiotics was determined by a diffusion technique according to the 2008 recommendations by the Antibiogram Committee of the French Microbiology Society (CA-SFM). In terms of critical concentrations and diameters, strains are categorized as follows: • sensitive (S): strains for which the MIC of the antibiotic tested is less than or equal to the lower critical concentration c, which is equivalent to a diameter greater than or equal to the critical diameter D; • resistant (R): strains for which the MIC of the antibiotic tested are greater than the upper critical concentration C, corresponding to a diameter less than the critical diameter d; • intermediate sensitivity (I): strains for which the MIC of the antibiotic tested and the corresponding diameter are between the two critical concentrations and the two critical diameters. The tests were carried out on Mueller-Hinton agar. An inoculum adjusted to 0.5 on the McFarland scale is then diluted to 1/100. Petri dishes are inoculated by swabbing. The dishes are read after 24 hours of incubation at 37° C. The raw results are then interpreted according to the interpretative reading rules of the CA-SFM. Two examples: all strains of methicillin-resistant Staphylococcus are resistant to all beta-lactams, and the same is true for gentamicin-resistant strains; golden staph is necessarily resistant to kanamycin (and amikacin) and tobramycin. The quality of the diffusion method is controlled using E. coli strain ATCC 25922.

Experiment [4] has as its system Pseudomonas aeruginosa strain 8128. Details: D: unit not given here.
From the text: as §1, §2, §3, §4, §5

The subject of the next experiment is E. coli strain 8157. Details: D: unit not given here.
From the text: as §1, §2, §3, §4, §5

A further experiment has as its system E. coli strain 8156. Details: D: unit not given here.
From the text: as §1, §2, §3, §4, §5

Experiment [5] has as its system Pseudomonas aeruginosa strain 8132. Details: D: unit not given here.
From the text: as §1, §2, §3, §4, §5

The next experiment has as its system E. coli strain 8154. Details: D: unit not given here.
From the text: as §1, §2, §3, §4, §5

Another experiment relates to E. coli strain 8155. Details: D: unit not given here.
From the text: as §1, §2, §3, §4, §5

Experiment [6] has as its system Pseudomonas aeruginosa strain 8129. Details: D: unit not given here.
From the text: as §1, §2, §3, §4, §5

For experiment [7], the system named is Pseudomonas aeruginosa strain 8134. Details: D: unit not given here.
From the text: as §1, §2, §3, §4, §5

The next experiment concerns Enterococcus strain 8153. Details: Diameter: unit not given here.
From the text: as §1, §2, §3, §4, §5

Another experiment deals with Enterococcus strain 8152. Details: Diameter: unit not given here.
From the text: as §1, §2, §3, §4, §5

The subject of experiment [8] is golden staph (S. aureus) strain 8240. Details: D: unit not given here.
From the text: as §1, §2, §3, §4, §5

In experiment [9] the test system is golden staph (S. aureus) strain 8147. Details: D: unit not given here.
From the text: as §1, §2, §3, §4, §5

Experiment [10] relates to golden staph (S. aureus) strain 8239. Details: D: unit not given here.
From the text: as §1, §2, §3, §4, §5

Turning to `CCn1cc(C(=O)O)c(=O)c2cc(F)c(N3CCNCC3)cc21` [Noroxin], the Category result (in the experiment on E. coli strain 9003; in experiment [1]) was “R” in each case.
For the molecule Colimycin, the Category entry (with E. coli strain 9003; in experiment [1]) was “S” each time.
With `CO/N=C(\C(=O)N[C@@H]1C(=O)N2C(C(=O)[O-])=C(C[N+]3(C)CCCC3)CS[C@H]12)c1csc(N)n1` [Cefepime], the Category entry is “R” in experiment [2], “R” with E. coli strain 9003, “R” in experiment [1] and “S” in [3]. For the same molecule, the “Category (Cat.)” value with E. coli ATCC 25922 is “S”. In addition, in the experiment on E. coli ATCC 25922, the “Diameter (D)” value turned out to be 25. Moreover, the Cat. entry (in [4]; with E. coli strain 8157; in the experiment with E. coli strain 8156; in experiment [5]; in the experiment with E. coli strain 8154; in the experiment with E. coli strain 8155) was “S” each time. For the same molecule, the Cat. entry in [6] and in experiment [7] was “S” throughout.
With Bactrim, the Category result is listed as “S” in the experiment on E. coli strain 9003 and “R” in [1].
In the case of `CCn1cc(C(=O)O)c(=O)c2ccc(C)nc21` [Nalidixic acid], the Category result in experiment [2] and in experiment [3] was “R” each time. Further, in the experiment with E. coli ATCC 25922, the “Category (Cat.)” value is given as “S”. For the same molecule, the “Diameter (D)” value with E. coli ATCC 25922 is 28. The Cat. result in experiment [4] is on record as “R”; in the experiment with E. coli strain 8157, “R”; with E. coli strain 8156, “S”; in experiment [5], “R”; in the experiment on E. coli strain 8154, “S”; in the experiment with E. coli strain 8155, “S”. Further, the Cat. result in [6] and in [7] was “R” throughout. Moreover, the D in experiment [4] was 0; in the experiment on E. coli strain 8157, 0; with E. coli strain 8156 it was 27; in experiment [5], 0; in the experiment with E. coli strain 8154 it was 24; in the experiment with E. coli strain 8155, 28. Besides, the D in experiment [6] and in experiment [7] was 0 in each case.
In the case of `CO[C@@]1(NC(=O)Cc2cccs2)C(=O)N2C(C(=O)O)=C(COC(N)=O)CS[C@@H]21` [Cefoxitin], the Category result in [2] is reported as “R”; in experiment [3], “R”; with Enterococcus strain 8153, “S”; in the experiment with Enterococcus strain 8152 it was “R”. Besides, the “Category (Cat.)” value in the experiment on E. coli ATCC 25922 is on record as “S”. For the same molecule, in the experiment with E. coli ATCC 25922, the “Diameter (D)” value was 24. The Cat. entry in [4] is on record as “R”; in the experiment on E. coli strain 8157 it was “S”; in the experiment on E. coli strain 8156, “S”; in experiment [5], “R”; with E. coli strain 8154 it was “S”; in the experiment with E. coli strain 8155, “S”. The Cat. result in experiment [6] and in experiment [7] was “R” each time. In addition, the D is reported as 0 in [4]; 30 in the experiment with E. coli strain 8157; 26 with E. coli strain 8156; 0 in [5]; 26 in the experiment with E. coli strain 8154; 25 in the experiment on E. coli strain 8155. In addition, the D in experiment [6] and in experiment [7] was 0 in each case. Also, the Diameter with Enterococcus strain 8153 was 25; in the experiment on Enterococcus strain 8152, 0.
Regarding `CO/N=C(\C(=O)N[C@@H]1C(=O)N2C(C(=O)O)=C(COC(C)=O)CS[C@H]12)c1csc(N)n1` [Cefotaxime], the Category entry (with E. coli strain 9003; in [1]) was “R” in each case.
`C[C@@H](O)[C@H]1C(=O)N2C(C(=O)O)=C(S[C@@H]3CN[C@H](C(=O)Nc4cccc(C(=O)O)c4)C3)[C@H](C)[C@H]12` [Eratpenem]: the Category result (in the experiment with E. coli strain 9003; in experiment [1]) was “S” in each case.
For `NCC[C@H](O)C(=O)N[C@@H]1C[C@H](N)[C@@H](O[C@H]2O[C@H](CN)[C@@H](O)[C@H](O)[C@H]2O)[C@H](O)[C@H]1O[C@H]1O[C@H](CO)[C@@H](O)[C@H](N)[C@H]1O` [Amikacin], the Category entry is recorded as “S” in the experiment with E. coli strain 9003 and “I” in experiment [1].
For the molecule `C[C@@H](O)[C@H]1C(=O)N2C(C(=O)O)=C(SCCN=CN)C[C@H]12` [Imipenem], the Category result in experiment [2] was “S”; in the experiment on E. coli strain 9003 it was “S”; in experiment [1], “S”; in [3] it was “R”. Besides, in the experiment on E. coli ATCC 25922, the “Category (Cat.)” value is on record as “S”. Further, the “Diameter (D)” value with E. coli ATCC 25922 was determined as 34. Besides, the Cat. result is reported as “I” in experiment [4]; “I” with E. coli strain 8157; “S” in the experiment on E. coli strain 8156; “R” in experiment [5]; “S” in the experiment with E. coli strain 8154; “S” in the experiment on E. coli strain 8155. The Cat. result in experiment [6] and in experiment [7] was “S” in each case. Further, the D came to 18 in experiment [4]; 20 in the experiment with E. coli strain 8157; 34 with E. coli strain 8156; 13 in experiment [5]; 33 in the experiment on E. coli strain 8154; 34 with E. coli strain 8155. Moreover, the results for the D in [6] and in [7] were 36 and 26, respectively.
Pristinamycin: the Cat. entry in [8], in [9] and in experiment [10] was “S” in each case. For the same molecule, the D in [8] came to 27; in experiment [9] it was 29; in experiment [10], 32. Moreover, the Category result in the experiment on Enterococcus strain 8153 and with Enterococcus strain 8152 was “S” in each case. Moreover, the Diameter came out at 22 with Enterococcus strain 8153 and 23 in the experiment with Enterococcus strain 8152.
On to `CC1(C)S[C@@H]2[C@H](NC(=O)[C@H](C(=O)O)c3ccsc3)C(=O)N2[C@H]1C(=O)O` [Ticarcillin], for which the Category entry (in [2]; with E. coli strain 9003; in experiment [1]; in experiment [3]) was “R” each time. In the experiment with E. coli ATCC 25922, the “Category (Cat.)” value is listed as “S”. In addition, the “Diameter (D)” value in the experiment with E. coli ATCC 25922 amounted to 25. Besides, the Cat. entry in [4] is given as “I”; with E. coli strain 8157 it was “R”; with E. coli strain 8156, “S”; in [5], “R”; in the experiment with E. coli strain 8154, “R”; in the experiment with E. coli strain 8155 it was “S”. In addition, the Cat. entry is recorded as “R” in [6] and “S” in experiment [7]. Besides, the D in [4] was determined as 21; with E. coli strain 8157 it was 0; in the experiment with E. coli strain 8156, 28; in [5] it was 12; in the experiment on E. coli strain 8154, 0; with E. coli strain 8155, 31. The D in [6] is listed as 13; in experiment [7] it was 23.
